For twelve compounds, IC50 results are on record in US9000029B2, “Proline sulfonamide derivatives as orexin receptor antagonists” (Actelion Pharmaceuticals Ltd., priority 2010, dated 2015).

In general, IC50 refers to the concentration needed to halve the response being measured.

The target in assay [1] is human orexin-1 receptor (Homo sapiens (Human), UniProt O43613). As to the kind of experiment: Intracellular calcium measurements (FLIPR), antagonism of orexin-A response. It counts as cell-based. The settings on record: CHO cells, 3 nM orexin-A, compound incubation 10 min; read-out: IC50 Ox1. How it is done: (§1) In Vitro Assay: Intracellular Calcium Measurements:
(§2) Chinese hamster ovary (CHO) cells expressing the human orexin-1 receptor and the human orexin-2 receptor, respectively, are grown in culture medium (Ham F-12 with L-Glutamine) containing 300 μg/ml G418, 100 U/ml penicillin, 100 μg/ml streptomycin and 10% heat inactivated fetal calf serum (FCS). The cells are seeded at 20'000 cells/well into 384-well black clear bottom sterile plates (Greiner). The seeded plates are incubated overnight at 37° C. in 5% CO2.
(§3) Human orexin-A as an agonist is prepared as 1 mM stock solution in MeOH: water (1:1), diluted in HBSS containing 0.1% bovine serum albumin (BSA), NaHCO3: 0.375 g/l and 20 mM HEPES for use in the assay at a final concentration of 3 nM.
(§4) Antagonists are prepared as 10 mM stock solution in DMSO, then diluted in 384-well plates using DMSO followed by a transfer of the dilutions into in HBSS containing 0.1% bovine serum albumin (BSA), NaHCO3: 0.375 g/l and 20 mM HEPES. On the day of the assay, 50 μl of staining buffer (HBSS containing 1% FCS, 20 mM HEPES, NaHCO3: 0.375 g/l, 5 mM probenecid (Sigma) and 3 μM of the fluorescent calcium indicator fluo-4 AM (1 mM stock solution in DMSO, containing 10% pluronic) is added to each well. The 384-well cell-plates are incubated for 50 min at 37° C. in 5% CO2 followed by equilibration at RT for 30 min before measurement.
(§5) Within the Fluorescent Imaging Plate Reader (FLIPR Tetra, Molecular Devices), antagonists are added to the plate in a volume of 10 μl/well, incubated for 10 min or (where explicitly indicated) for 120 min and finally 10 μl/well of agonist is added. Fluorescence is measured for each well at 1 second intervals, and the height of each fluorescence peak is compared to the height of the fluorescence peak induced by 3 nM orexin-A with vehicle in place of antagonist. The IC50 value (the concentration of compound needed to inhibit 50% of the agonistic response) is determined and may be normalized using the obtained IC50 value of a on-plate reference compound. Optimized conditions were achieved by adjustment of pipetting speed and cell splitting regime. The calculated IC50 values may fluctuate depending on the daily cellular assay performance. Fluctuations of this kind are known to those skilled in the art.
In general terms: Calcium assays in cells follow changes in intracellular calcium, usually with a dye or a luminescent sensor.

The target in assay [2] is human orexin-2 receptor (Homo sapiens (Human), UniProt O43614). The assay is described as above. The class given is cell-based. The settings on record: CHO cells, 3 nM orexin-A, compound incubation 10 min; read-out: IC50 Ox2. How it is done:
as §1, §2, §3, §4, §5

Sequence of human orexin-2 receptor (O43614 whole entry): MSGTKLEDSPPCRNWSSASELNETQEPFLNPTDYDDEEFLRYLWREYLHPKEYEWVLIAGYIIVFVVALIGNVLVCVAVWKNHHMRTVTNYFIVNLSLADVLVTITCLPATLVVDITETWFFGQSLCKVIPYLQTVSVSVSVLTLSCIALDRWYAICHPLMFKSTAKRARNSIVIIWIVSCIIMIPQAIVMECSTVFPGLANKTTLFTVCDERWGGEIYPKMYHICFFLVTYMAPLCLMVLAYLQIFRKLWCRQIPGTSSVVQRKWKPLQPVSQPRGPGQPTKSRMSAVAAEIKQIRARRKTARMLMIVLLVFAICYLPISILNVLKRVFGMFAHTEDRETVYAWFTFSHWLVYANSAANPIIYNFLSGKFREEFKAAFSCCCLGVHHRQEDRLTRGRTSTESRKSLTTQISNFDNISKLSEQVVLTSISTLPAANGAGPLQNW
Sequence of human orexin-1 receptor (O43613 whole entry): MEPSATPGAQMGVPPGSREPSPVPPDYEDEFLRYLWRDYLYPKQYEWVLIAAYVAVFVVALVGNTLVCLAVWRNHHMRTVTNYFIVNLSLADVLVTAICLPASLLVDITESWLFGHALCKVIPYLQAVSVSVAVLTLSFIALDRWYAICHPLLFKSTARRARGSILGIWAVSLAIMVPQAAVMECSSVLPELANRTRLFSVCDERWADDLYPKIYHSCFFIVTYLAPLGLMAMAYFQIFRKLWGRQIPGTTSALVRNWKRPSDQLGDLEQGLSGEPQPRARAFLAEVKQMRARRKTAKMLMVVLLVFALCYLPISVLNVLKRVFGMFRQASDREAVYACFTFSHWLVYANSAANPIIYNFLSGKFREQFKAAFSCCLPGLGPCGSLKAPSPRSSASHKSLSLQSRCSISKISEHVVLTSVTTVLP

Regarding `COc1ccc(S(=O)(=O)N2CCC[C@H]2C(=O)Nc2cc(C)ccc2Cl)cc1` [Example 28, (S)-1-(4-Methoxy-benzenesulfonyl)-pyrrolidine-2-carboxylic acid (2-chloro-5-methyl-phenyl)-amide], the values for the IC50 in assay [1] and in assay [2] were 305 nM and 224 nM, respectively.
For the compound `COc1ccc(S(=O)(=O)N2CCC[C@H]2C(=O)Nc2cc(OC)ccc2Cl)cc1` [Example 29, (S)-1-(4-Methoxy-benzenesulfonyl)-pyrrolidine-2-carboxylic acid (2-chloro-5-methoxy-phenyl)-amide], the results for the IC50 in assay [1] and in assay [2] were 625 nM and 128 nM, respectively.
As to `COc1ccc(S(=O)(=O)N2CCC[C@H]2C(=O)Nc2cc(C(F)(F)F)cc(C(F)(F)F)c2)cc1` [Example 30, (S)-1-(4-Methoxy-benzenesulfonyl)-pyrrolidine-2-carboxylic acid (3,5-bis-trifluoromethyl-phenyl)-amide], the concentration for half-maximal inhibition (IC50) worked out at 86 nM in assay [1] and 68 nM in assay [2].
Consider `COc1ccc(S(=O)(=O)N2CCC[C@H]2C(=O)Nc2ccc(F)c(Cl)c2)cc1` [Example 31, (S)-1-(4-Methoxy-benzenesulfonyl)-pyrrolidine-2-carboxylic acid (3-chloro-4-fluoro-phenyl)-amide], for which the IC50 was 74 nM in assay [1] and 34 nM in assay [2].
For the compound `CCOc1cccc(NC(=O)[C@@H]2CCCN2S(=O)(=O)c2ccc(OC)cc2)c1` [Example 32, (S)-1-(4-Methoxy-benzenesulfonyl)-pyrrolidine-2-carboxylic acid (3-ethoxy-phenyl)-amide], the IC50 in assay [1] was found to be 134 nM; in assay [2], 38 nM.
`COc1ccc(S(=O)(=O)N2CCC[C@H]2C(=O)Nc2ccc3c(c2)CCC3)cc1` [Example 33, (S)-1-(4-Methoxy-benzenesulfonyl)-pyrrolidine-2-carboxylic acid indan-5-ylamide]: the IC50 was found to be 129 nM in assay [1] and 12 nM in assay [2].
In the case of `CCc1cccc(NC(=O)[C@@H]2CCCN2S(=O)(=O)c2ccc(OC)cc2)c1` [Example 34, (S)-1-(4-Methoxy-benzenesulfonyl)-pyrrolidine-2-carboxylic acid (3-ethyl-phenyl)-amide], the IC50 in assay [1] is 54 nM; in assay [2], 8 nM.
Consider `COc1ccc(S(=O)(=O)N2CCC[C@H]2C(=O)Nc2cc(Cl)ccc2OC)cc1` [Example 35, (S)-1-(4-Methoxy-benzenesulfonyl)-pyrrolidine-2-carboxylic acid (5-chloro-2-methoxy-phenyl)-amide], for which the IC50 in assay [1] turned out to be 714 nM; in assay [2], 209 nM.
Turning to `COc1ccc(S(=O)(=O)N2CCC[C@H]2C(=O)Nc2ccc(F)c(F)c2)cc1` [Example 36, (S)-1-(4-Methoxy-benzenesulfonyl)-pyrrolidine-2-carboxylic acid (3,4-difluoro-phenyl)-amide], the IC50 in assay [1] came out at 569 nM; in assay [2], 136 nM.
In the case of `COc1ccc(S(=O)(=O)N2CCC[C@H]2C(=O)Nc2ccc(F)c(C)c2)cc1` [Example 37, (S)-1-(4-Methoxy-benzenesulfonyl)-pyrrolidine-2-carboxylic acid (4-fluoro-3-methyl-phenyl)-amide], the IC50 came out at 70 nM in assay [1] and 28 nM in assay [2].
For `COc1ccc(S(=O)(=O)N2CCC[C@H]2C(=O)Nc2cc(C)ccc2F)cc1` [Example 38, (S)-1-(4-Methoxy-benzenesulfonyl)-pyrrolidine-2-carboxylic acid (2-fluoro-5-methyl-phenyl)-amide], the figures for the IC50 in assay [1] and in assay [2] were 304 nM and 26 nM, respectively.
As for `COc1ccc(S(=O)(=O)N2CCC[C@H]2C(=O)Nc2ccc(Cl)c(C)c2)cc1` [Example 39, (S)-1-(4-Methoxy-benzenesulfonyl)-pyrrolidine-2-carboxylic acid (4-chloro-3-methyl-phenyl)-amide], the IC50 in assay [1] came to 235 nM; in assay [2], 18 nM.
